Experimental data reported in patent US20240158797A1, “ANTISENSE OLIGONUCLEOTIDES FOR THEIR USE IN AN ANTI-CANCER TREATMENT” (UNIVERSITÉ GRENOBLE ALPES, priority 2021, published 2024).

Legend:
[1] = system: 6-O-methylguanine DNA methyltransferase (MGMT) protein; assay: Test of the expression level of the MGMT protein (western blot) in T98G cells; type: cell-based; details: for levels of MGMT protein: T98G glioma cells, 100 μM ASO in lipofectamine 48 h, western blot vs ASO Scr, at least four repetitions
Procedure: (§1) The U87, T98G and U251 glioma cell lines are cultured in DMEM medium («Dulbecco/Vogt modified Eagle's minimal essential medium» supplemented with 10% fetal calf serum and 1% penicillin and streptomycin.
(§2) When the cultures are at 60% confluence, they are transfected with 100 μM of antisense oligonucleotide (ASO) RG6042 (of sequence SEQ ID NO: 1), or PH1 (SEQ ID NO: 2) or PH2 (SEQ ID NO: 3) or PH3 (SEQ ID NO: 4) or Scr in lipofectamine for 48 h. The ASO Scr (for «scramble» is an ASO serving as a control whose sequence SEQ ID NO: 5 is <A*CATG*>A*C*C*G*C*A*C*T*C*A*<CTAT*A> where * is a phosphorothioate bond and the bases between the signs < and > are 2′-O-methoxyethyl RNA.
Cells transfected with ASO RG6042, ASO Scr, or treated with lipofectamine alone (for control), are harvested for the test of the expression level of the MGMT protein.
The protocol is the same as for the previously cited test of the expression level of the HTT protein with the only change being the use of anti-MGMT antibodies (#2739, from the Cell signaling Technology® brand) in incubation to reveal the MGMT protein. The vinculin is also used here as a load control.
(§3) FIG. 4 illustrates in A the result of the western blot produced from cells of the T98G cell line having been transfected with ASO RG6042, with ASO Scr or treated with lipofectamine alone (Ctrl) and, in B, the quantification of MGMT protein levels obtained by western blot after at least 4 repetitions of the experiment presented in A.
(§4) T98G cells transfected with ASO RG6042, or ASO PH1, or ASO PH2 or ASO PH3, or ASO Scr, are harvested for testing the expression level of HTT proteins and MGMT.
(§5) The protocol is the same as for the previously cited tests for the expression level of the HTT protein and the expression level of the MGMT protein. The vinculin is also used here as a load control.
(§6) FIG. 6 illustrates the quantification of the protein levels of HTT in A and of MGMT in B, obtained by western blot after at least four repetitions of the experiment presented in FIG. 5. The statistics were carried out using the Kruskal-wallis test followed by Dunn's multiple comparison test, error bars, SEM, *p<0.05, **p<0.001.

huntingtin (HTT) protein = assay: Test of the expression level of the HTT protein in T98G cells transfected with ASO RG6042, PH1, PH2, PH3 or Scr; type: cell-based; details: T98G glioma cells, 100 μM ASO in lipofectamine 48 h; western blot vs ASO Scr, at least four repetitions
Procedure: as §1, §2
The cells are rinsed with phosphate-buffered saline (PBS) and then lysed in RIPA-type lysis buffer supplemented with protease and phosphatase inhibitors. The proteins solubilized in the buffer are harvested after centrifugation, denatured in Laemmli loading buffer and deposited on polyacrylamide gel. After migration, the proteins are transferred onto a polyvinylidine difluoride (PVDF) membrane. […] The vinculin is used as a load control.
as §4, §5
FIG. 5 illustrates the result of the western blot produced from cells of the T98G cell line having been transfected with ASO RG6042, with ASO PH1, with ASO PH2, with ASO PH3, or with ASO Scr.
as §6

huntingtin protein (HTT) = assay: Huntingtin (HTT) protein expression level test (western blot) in transfected glioma cells; type: cell-based; details: glioma cells (U251, U87, T98G) transfected with 100 μM ASO in lipofectamine for 48 h; western blot vs ASO Scr / lipofectamine alone
Procedure: as §1
as §2, with “RNA. […]” for “RNA.”
FIG. 1 illustrates in A the results of the western blot carried out from cells of the U251 cell line having been transfected with ASO RG6042, with the ASO Scr or simply treated with lipofectamine alone (Ctrl for control), and, in B, the quantification of HTT protein levels obtained by western blot after 4 repetitions of the experiment presented in A.
as §3, with “FIG. 2” for “FIG. 4”, “the U87” for “the T98G”, “alone (Ctrl),” for “alone (Ctrl)”, “of HTT” for “of MGMT”, “least 3” for “least 4”, “A. […]” for “A.”

U87 cell line = assay: Temozolomide (TMZ) sensitivity test (MTT), U87 line; type: cell-based; details: U87 cultures, RG6042 vs control
Procedure: as §1
as §2, with “RNA. […]” for “RNA.”
(§7) The yellow probe of MTT, 3-(4,5-Dimethyl-2-thiazolyl)-2,5-diphenyl-2H-tetrazolium bromide, is then added at a working concentration of 0.5 mg·ml^−1 to each well. […] The optical density (OD) of the contents of each well is then analyzed with a spectrophotometer at wavelengths comprised between 490 nm and 570 nm. […]
(§8) FIG. 9 illustrates in A a curve showing the percentage of living cells of the U87 line transfected with ASO RG6042 or treated with lipofectamine alone (Ctrl) as a function of the received dose of TMZ and, in B, the averages TMZ concentrations measured at the LD50 in 4 different MTT tests for cells of the U251 line transfected with ASO RG6042 or treated with lipofectamine alone (Ctrl).

U251 cell line [2] = assay: Temozolomide (TMZ) sensitivity test (MTT), U251 line; type: cell-based; details: U251 cultures, RG6042 vs control
Procedure: as §1
as §2, with “RNA. […]” for “RNA.”
as §7
as §8, with “8” for “9”, “live” for “living”, “U251” for “U87”, “average” for “averages”

T98G cell line [3] = assay: Temozolomide (TMZ) sensitivity test (MTT), T98G line; type: cell-based; details: T98G cultures, RG6042 vs control
Procedure: as §1
as §2, with “RNA. […]” for “RNA.”
as §7
as §8, with “FIG. 10” for “FIG. 9”, “the T98G” for “the U87”, “the average” for “the averages”, “in 6” for “in 4”, “the T98G” for “the U251”

U251 cell line [4] = assay: Sensitivity test to the alkylating agent Lomustine (MTT), U251 line; type: cell-based
Procedure: as §1, §2
(§9) The cells transfected with ASO RG6042 or ASO Scr are harvested for the sensitivity test to the alkylating agent Lomustine.
(§10) The Lomustine was prepared in the form of a stock solution of 50 mg/ml (214 mM) in pure ethanol. The solution was filtered to sterilize it (0.2 μm pore filter) and frozen at −20° C. until further use. […]
FIG. 11 illustrates in A a curve showing the percentage of living cells of the U251 line transfected with ASO RG6042 or Scr as a function of the dose of Lomustine received and, in B, the mean of the concentrations of Lomustine measured at the LD50 in 4 different MTT assays for U251 cell line transfected with ASO RG6042 or Scr.

T98G cell line [5] = assay: Sensitivity test to the alkylating agent Lomustine (MTT), T98G line; type: cell-based
Procedure: as §1, §2, §9, §10
FIG. 12 illustrates in A a curve showing the percentage of live cells of the T98G line transfected with ASO RG6042 or Scr as a function of the received dose of Lomustine and, in B, the mean of the concentrations of Lomustine measured at the LD50 in 4 different MTT assays for T98G cell line transfected with ASO RG6042 or Scr.

HTT = details: patients with Huntington's disease, after 4 intrathecal injections (Tabrizi et al. 2019); cited from earlier work

Substance | levels of MGMT protein [1] | levels of HTT protein (huntingtin (HTT) protein) | HTT protein levels (huntingtin protein (HTT)) | MGMT levels ([1]; T98G cells transfected with 100 μM ASO in lipofectamine for 48 h, western blot vs ASO Scr / lipofectamine alone) | reduction in the LD50 at the TMZ (U87 cell line) [%] | reduction in the LD50 at the TMZ (U251 cell line [2]) [%] | reduction in the LD50 at the TMZ (T98G cell line [3]) [%] | sensitization to the alkylating agent Lomustine (U251 cell line [4]; U251 cells) | reduction in the LD50 of Lomustine (U251 cell line [4]; U251 cultures, RG6042 vs Scr) [%] | sensitization to the alkylating agent Lomustine (T98G cell line [5]; T98G cells) | reduction in the LD50 of Lomustine (T98G cell line [5]; T98G cultures, RG6042 vs Scr) [%] | HTT levels in the cerebrospinal fluid (HTT)
ASO PH1: antisense oligonucleotide of sequence SEQ ID NO: 2 reducing HTT and MGMT levels (antisense TCTCTATTGCACATTCCAAG; listed as DNA, chemistry not given here) | significantly reduce | significantly reduce | – | – | – | – | – | – | – | – | – | –
ASO PH2: antisense oligonucleotide of sequence SEQ ID NO: 3 reducing HTT and MGMT levels (antisense CTCGACTAAAGCAGGATTTC; listed as DNA, chemistry not given here) | significantly reduce | significantly reduce | – | – | – | – | – | – | – | – | – | –
ASO PH3: antisense oligonucleotide of sequence SEQ ID NO: 4 reducing HTT and MGMT levels (antisense CCTGCATCAGCTTTATTTGT; listed as DNA, chemistry not given here) | significantly reduce | significantly reduce | – | – | – | – | – | – | – | – | – | –
ASO RG6042: antisense oligonucleotide of sequence SEQ ID NO: 1 targeting huntingtin mRNA; sequence from literature, clinical trials in Huntington's disease (antisense CTCAGTAACATTGACACCAC; listed as DNA, chemistry not given here) | significantly reduce | significantly reduce | significantly reduces | significantly reduces | 32 | 40 | 45 | sensitizes | 41 | sensitizes | 47 | decreased
